Like-named read-outs stand apart in the source and are kept apart here. No end group written: not given here.
What was measured:
[1] = system: cancer patients; details: human, in vivo
[2] = system: healthy volunteers; assay: Allergic skin test (intradermal injection, flare size) in healthy volunteers; type: in vivo, human; details: for positive skin reaction, number of cases: among 41 or 42 cases of healthy volunteers
Procedure: Therefore, it was investigated whether an allergic reaction to a peptide derived from the above self-antigen would also be observed in healthy volunteers. Skin tests were carried out with respect to self-derived tumor rejection antigen peptides capable of inducing cytotoxic T cells for 42 cases of healthy volunteers whose age ranges from 19 years old to 54 years old (mean age 29.2 years). For testing an allergic skin reaction, 10 μg of each peptide (50 μl volume) was intradermally injected, and evaluation was carried out 15 minutes after the injection. The results are summarized in Tables 1 to 4, wherein ‘NT’ and ‘S. T’ mean ‘not tested’ and ‘skin test’, respectively. −: longest diameter (D) of flare […] +: 10 mm≦D<30 mm ++: 30 mm≦D<50 mm +++: 50 mm≦D

[3] = system: skin reaction and serum IgE level against SART3315; details: human, in vivo
Procedure: The phase I clinical test using SART3109 was carried out on a colon cancer patient whose skin reaction against SART3315 was positive. With respect to the patient, a skin reaction against SART3109 was negative, and a specific IgE level in serum against SART3315 and SART3109 was low. […] Although a SART3109-specific IgE level in serum was increased by administration of SART3109, skin reactions before and after administration of the same were negative (FIG. 1F). Namely, an allergic reaction and the specific IgE level in serum against SART3315 were reduced by administration of SART3109.

[4] = system: cancer patients; assay: Skin test by pre-vaccination before phase I clinical trial in cancer patients
[5] = system: skin reaction and serum IgE level against CypB84; assay: Phase I clinical trial of peptide vaccine using CypB91 in lung cancer patient; type: in vivo, human
Procedure: The phase I clinical trial of a peptide vaccine using CypB91 was carried out on a lung cancer patient whose skin reaction and serum IgE level against CypB84 were positive in the above allergic skin test. The skin reaction and serum IgE level against CypB91 of the patient were negative. […] A skin reaction and a serum […] level against CypB91 even after 3 times administration of CypB91 were substantially the same as those before administration, i.e., negative (FIG. 1B).

[6] = system: skin reaction and serum IgE level against ART413; details: human, in vivo
Procedure: The phase I clinical trial with ART475 was carried out on an ovarian cancer patient whose skin reaction against ART413 was positive. With respect to the patient, a skin reaction against ART475 was negative, and a specific IgE level in serum against ART413 and ART475 was low. […] Namely, an allergic reaction and a specific IgE level in serum against ART413 were reduced by administration of ART475.

[7] = positive donors / donors tested, healthy volunteers

Substance | positive skin reaction, number of cases [2] [cases] | positive skin reaction, percent of healthy volunteers ([2]; healthy volunteers) [%] | S. T positive rate [2, 7] | other results
CypB84F-Y: peptide obtained by partially modifying CypB84: phenylalanine (F) at the 2nd position replaced with tyrosine (Y) (KYHRVIKDF; Peptide consisting of 9 amino acid residues from the 84th residue to the 92nd residue of cyclophillin B) |  |  |  | immediate hypersensitivity skin reactions elicited [1]: eight of ten
SYTRLFLIL [SART2899, SYTRLFLIL] | 10 | 24 | 10/41 | 
AYIDFEMKI [SART3315, AYIDFEMKI] | 18 | 44 | 18/41 | 
VYDYNCHVDL [SART3109, VYDYNCHVDL] | 7 | 17 | 7/42 | SART3109-specific IgE level in serum [3]: increased; skin reactions against SART3109 [3]: negative
AYDFLYNYL [SART2161, AYDFLYNYL] |  |  | 0/42 | S. T (skin test, size of inflammatory flare) ([2]; individual healthy donors, 10 μg peptide intradermally, evaluated 15 minutes after injection): − (longest diameter (D) of flare <30 mm)
AFLRHAAL [ART413, AFLRHAAL] |  | 95 | 39/41 | allergic skin reaction ([4]; ovarian cancer patients): elicited an allergic skin reaction
CypB91-2F-Y: peptide obtained by replacing phenylalanine at the 2nd position of CypB91 with tyrosine (DYMIQGGDF; Designed peptide based on the peptide consisting of 9 amino acid residues from the 91st residue to the 99th residue of cyclophillin B) |  |  |  | inhibition of skin reaction and specific IgE level against CypB84, number of cases ([5]; among 10 cases tested, vaccination of CypB91 or CypB91-2F-Y): 9 cases
DYPSLSATDI [ART475, DYPSLSATDI] |  |  | 1/41 | ART475-specific IgE level in serum [6]: gradually increased; skin reaction against ART475 [6]: negative
DFMIQGGDF [CypB91, DFMIQGGDF] |  |  |  | skin reaction against CypB91 ([5]; after 3 times administration of CypB91): negative; S. T positive rate ([2]; human, in vivo): 0/42
KFHRVIKDF [CypB84, KFHRVIKDF] | 40 | 95 | 40/42 | immediate hypersensitivity skin reactions elicited ([4]; pre-vaccinated lung-cancer patients): eight of ten

— patent US20040141992A1, “Desensitizers” (priority 2001, published 2004)
